# Measured values taken from PubChem BioAssay AID1259407 (Chemical Carcinogenesis Research Information System (CCRIS), 2018).
# Active and inactive are the calls of the source. No rule for the calls is given here.
# Tested on: CCRIS mutagenicity, Ames/micronucleus/aberration tests
# Test: CCRIS mutagenicity studies
# [1] = Test System: AMES SALMONELLA TYPHIMURIUM, Strain/Indicator: TA98, Metabolic Activation: NONE, Method: PREINCUBATION
# [2] = Test System: AMES SALMONELLA TYPHIMURIUM, Strain/Indicator: TA102, Metabolic Activation: NONE, Method: PREINCUBATION
# [3] = Test System: AMES SALMONELLA TYPHIMURIUM, Strain/Indicator: TA98, Metabolic Activation: NONE, Method: STANDARD PLATE
# [4] = Test System: AMES SALMONELLA TYPHIMURIUM, Strain/Indicator: TA100, Metabolic Activation: NONE, Method: STANDARD PLATE
smiles,measurement,setting,value
OCC(CO)(CO)CO,mutagenic call,[1],inactive; negative
same,mutagenic call,"Test System: AMES SALMONELLA TYPHIMURIUM, Strain/Indicator: TA98, Metabolic Activation: RAT, LIVER, S-9, KC 500, Method: PREINCUBATION",inactive; negative
same,mutagenic call,"Test System: AMES SALMONELLA TYPHIMURIUM, Strain/Indicator: TA98, Metabolic Activation: RAT, LIVER, S-9, SODIUM PHENOBARBITAL AND 5,6-BENZOFLAVONE, Method: PREINCUBATION",inactive; negative
same,mutagenic call,"Test System: AMES SALMONELLA TYPHIMURIUM, Strain/Indicator: TA100, Metabolic Activation: NONE, Method: PREINCUBATION",inactive; negative
same,mutagenic call,"Test System: AMES SALMONELLA TYPHIMURIUM, Strain/Indicator: TA100, Metabolic Activation: RAT, LIVER, S-9, KC 500, Method: PREINCUBATION",inactive; negative
same,mutagenic call,"Test System: AMES SALMONELLA TYPHIMURIUM, Strain/Indicator: TA100, Metabolic Activation: RAT, LIVER, S-9, SODIUM PHENOBARBITAL AND 5,6-BENZOFLAVONE, Method: PREINCUBATION",inactive; negative
same,mutagenic call,[2],inactive; negative
same,mutagenic call,"Test System: AMES SALMONELLA TYPHIMURIUM, Strain/Indicator: TA102, Metabolic Activation: RAT, LIVER, S-9, SODIUM PHENOBARBITAL AND 5,6-BENZOFLAVONE, Method: PREINCUBATION",inactive; negative
same,mutagenic call,"Test System: AMES SALMONELLA TYPHIMURIUM, Strain/Indicator: TA104, Metabolic Activation: NONE, Method: PREINCUBATION",inactive; negative
same,mutagenic call,"Test System: AMES SALMONELLA TYPHIMURIUM, Strain/Indicator: TA104, Metabolic Activation: RAT, LIVER, S-9, SODIUM PHENOBARBITAL AND 5,6-BENZOFLAVONE, Method: PREINCUBATION",inactive; negative
same,mutagenic call,"Test System: AMES SALMONELLA TYPHIMURIUM, Strain/Indicator: TA1535, Metabolic Activation: NONE, Method: PREINCUBATION",inactive; negative
same,mutagenic call,"Test System: AMES SALMONELLA TYPHIMURIUM, Strain/Indicator: TA1535, Metabolic Activation: RAT, LIVER, S-9, KC 500, Method: PREINCUBATION",inactive; negative
same,mutagenic call,"Test System: AMES SALMONELLA TYPHIMURIUM, Strain/Indicator: TA1535, Metabolic Activation: RAT, LIVER, S-9, SODIUM PHENOBARBITAL AND 5,6-BENZOFLAVONE, Method: PREINCUBATION",inactive; negative
same,mutagenic call,"Test System: AMES SALMONELLA TYPHIMURIUM, Strain/Indicator: TA1537, Metabolic Activation: NONE, Method: PREINCUBATION",inactive; negative
same,mutagenic call,"Test System: AMES SALMONELLA TYPHIMURIUM, Strain/Indicator: TA1537, Metabolic Activation: RAT, LIVER, S-9, KC 500, Method: PREINCUBATION",inactive; negative
same,mutagenic call,"Test System: AMES SALMONELLA TYPHIMURIUM, Strain/Indicator: TA1537, Metabolic Activation: RAT, LIVER, S-9, SODIUM PHENOBARBITAL AND 5,6-BENZOFLAVONE, Method: PREINCUBATION",inactive; negative
same,mutagenic call,"Test System: AMES SALMONELLA TYPHIMURIUM, Strain/Indicator: TA1538, Metabolic Activation: NONE, Method: PREINCUBATION",inactive; negative
same,mutagenic call,"Test System: AMES SALMONELLA TYPHIMURIUM, Strain/Indicator: TA1538, Metabolic Activation: RAT, LIVER, S-9, KC 500, Method: PREINCUBATION",inactive; negative
same,mutagenic call,"Test System: E. COLI, Strain/Indicator: WP2UVRA/PKM101, Metabolic Activation: NONE, Method: PREINCUBATION",inactive; negative
same,mutagenic call,"Test System: E. COLI, Strain/Indicator: WP2UVRA/PKM101, Metabolic Activation: RAT, LIVER, S-9, SODIUM PHENOBARBITAL AND 5,6-BENZOFLAVONE, Method: PREINCUBATION",inactive; negative
same,mutagenic call,"Test System: E. COLI, Strain/Indicator: WP2UVRA, Metabolic Activation: NONE, Method: PREINCUBATION",inactive; negative
same,mutagenic call,"Test System: E. COLI, Strain/Indicator: WP2 UVRA, Metabolic Activation: RAT, LIVER, S-9, KC 500, Method: PREINCUBATION",inactive; negative
same,mutagenic call,"Test System: E. COLI, Strain/Indicator: WP2UVRA, Metabolic Activation: RAT, LIVER, S-9, SODIUM PHENOBARBITAL AND 5,6-BENZOFLAVONE, Method: PREINCUBATION",inactive; negative
Nc1ccc2cc(S(=O)(=O)O)cc(O)c2c1N=Nc1ccc([N+](=O)[O-])cc1S(=O)(=O)O,mutagenic call,[3],inactive; negative
same,mutagenic call,"Test System: AMES SALMONELLA TYPHIMURIUM, Strain/Indicator: TA98, Metabolic Activation: RAT, LIVER, S-9, PHENOBARBITAL, Method: STANDARD PLATE",inactive; negative
same,mutagenic call,[4],inactive; negative
same,mutagenic call,"Test System: AMES SALMONELLA TYPHIMURIUM, Strain/Indicator: TA100, Metabolic Activation: RAT, LIVER, S-9, PHENOBARBITAL, Method: STANDARD PLATE",inactive; negative
O=[N+]([O-])c1ccc2sc3ccccc3c2c1,mutagenic call,"Test System: AMES SALMONELLA TYPHIMURIUM, Strain/Indicator: TA98 (1,8-DNP6), Metabolic Activation: NONE, Method: PREINCUBATION",active; positive
same,mutagenic call,"Test System: AMES SALMONELLA TYPHIMURIUM, Strain/Indicator: TA98(NR), Metabolic Activation: NONE, Method: PREINCUBATION",active; positive
same,mutagenic call,"Test System: AMES SALMONELLA TYPHIMURIUM, Strain/Indicator: TA98(NR), Metabolic Activation: RAT LIVER S-9, 3-METHYLCHOLANTHRENE (10%), Method: PREINCUBATION",active; positive
same,mutagenic call,[1],active; positive
CC(=O)Nc1ccc2ccc3ccc(O)c4ccc1c2c34,mutagenic call,"Test System: AMES SALMONELLA TYPHIMURIUM, Strain/Indicator: TA98(1,8-DNP6), Metabolic Activation: NONE, Method: STANDARD PLATE",inactive; negative
same,mutagenic call,"Test System: AMES SALMONELLA TYPHIMURIUM, Strain/Indicator: TA98(1,8-DNP6), Metabolic Activation: RAT, LIVER, S-9, AROCLOR 1254, Method: STANDARD PLATE",inactive; negative
same,mutagenic call,"Test System: AMES SALMONELLA TYPHIMURIUM, Strain/Indicator: YG1024, Metabolic Activation: NONE, Method: STANDARD PLATE",inactive; negative
same,mutagenic call,"Test System: AMES SALMONELLA TYPHIMURIUM, Strain/Indicator: YG1024, Metabolic Activation: RAT, LIVER, S-9, AROCLOR 1254, Method: STANDARD PLATE",inactive; negative
CC(C)=C[C@@H]1[C@@H](C(=O)OCc2coc(Cc3ccccc3)c2)C1(C)C,mutagenic call,[3],inactive; negative
same,mutagenic call,"Test System: AMES SALMONELLA TYPHIMURIUM, Strain/Indicator: TA98, Metabolic Activation: RAT, LIVER, S-9, AROCLOR 1254, Method: STANDARD PLATE",inactive; negative
same,mutagenic call,[4],inactive; negative
same,mutagenic call,"Test System: AMES SALMONELLA TYPHIMURIUM, Strain/Indicator: TA100, Metabolic Activation: RAT, LIVER, S-9, AROCLOR 1254, Method: STANDARD PLATE",inactive; negative
same,mutagenic call,"Test System: CHINESE HAMSTER V-79, Strain/Indicator: V-79/6-THIOGUANINE, Metabolic Activation: NONE, Method: STANDARD PLATE",inactive; negative
same,mutagenic call,"Test System: CHINESE HAMSTER V-79, Strain/Indicator: V-79/6-THIOGUANINE, Metabolic Activation: RAT HEPATOCYTES, Method: STANDARD PLATE",inactive; negative
same,mutagenic call,"Test System: CHINESE HAMSTER V-79, Strain/Indicator: V-79/OUABAIN, Metabolic Activation: NONE, Method: STANDARD PLATE",inactive; negative
same,mutagenic call,"Test System: CHINESE HAMSTER V-79, Strain/Indicator: V-79/OUABAIN, Metabolic Activation: RAT HEPATOCYTES, Method: STANDARD PLATE",inactive; negative
Nc1nc2c(ncn2[C@@H]2O[C@H](COP(=O)(O)O)[C@@H](O)[C@H]2O)c(=O)[nH]1,mutagenic call,"Test System: AMES SALMONELLA TYPHIMURIUM, Strain/Indicator: TA97, Metabolic Activation: NONE, Method: PREINCUBATION",inactive; negative
same,mutagenic call,"Test System: AMES SALMONELLA TYPHIMURIUM, Strain/Indicator: TA97, Metabolic Activation: RAT, LIVER, S-9, AROCLOR 1254, Method: PREINCUBATION",inactive; negative
same,mutagenic call,[2],inactive; negative
same,mutagenic call,"Test System: AMES SALMONELLA TYPHIMURIUM, Strain/Indicator: TA102, Metabolic Activation: RAT, LIVER, S-9, AROCLOR 1254, Method: PREINCUBATION",inactive; negative
